From patent US20080262010A1, “CRYSTALLINE POLYMORPHS OF N-(3-(DIMETHYLAMINO)PROPYL)-4-(4-(3-FLUORO-4-METHOXYPHENYL) PYRIMIDIN-2-YLAMINO) BENZENESULFONAMIDE AS D-GLUCORONATE SALTS” (Wyeth, priority 2007, published 2008) come the findings set out here.

A word on the solubility: it is the concentration that dissolves in the medium under given conditions.

The nature of data set [1]: Water solubility of compound 3 free base and its salts. The data set is classed as physicochemical. Conditions: for solubility in water: free base, thermogravimetric method. The source says: HCl, phosphoric acid, tartaric acid, acetic acid, D-glucoronic acid and succinic acid were used to prepare pharmaceutically acceptable salts of compound 3.
Solid or crystalline forms or polymorphs of compounds having formula I can be achieved in the free base.

Data set [2] in a line: Solubility of the free base of compound 3 in solvents. The class given is physicochemical. The method, then: Typically, water solubilities of the compounds in the form of their respective free base, such as compound 3, are low to none. In an exemplary embodiment, the solubility of the free base form of compound 3 in THF, DMSO and DMF was high but the solubility in group 3 solvents, or water for example, was low. For example, acetone is needed to dissolve the free base at 50° C. […] HCl, phosphoric acid, tartaric acid, acetic acid, D-glucoronic acid and succinic acid were used to prepare pharmaceutically acceptable salts of compound 3.

Structures can show the parent of a compound that is named as a salt.

With `COc1ccc(-c2ccnc(Nc3ccc(S(=O)(=O)NCCCN(C)C)cc3)n2)cc1F` [compound 3, N-(3-(dimethylamino)propyl)-4-(4-(3-fluoro-4-methoxyphenyl)pyrimidin-2-ylamino)benzenesulfonamide], the solubility in water entry is “little to no water solubility” in data set [1] and “not detectable” in data set [1] (listed as free base 3). Moreover, in data set [2] (THF, DMSO and DMF), the “solubility in THF, DMSO and DMF” value was “high”. Besides, in data set [2] (group 3 solvents, or water), the “solubility in group 3 solvents, or water” value is recorded as “low”.
Take `COc1ccc(-c2ccnc(Nc3ccc(S(=O)(=O)NCCCN(C)C)cc3)n2)cc1F` [D-glucoronate salt of compound 3]: in data set [1] (salts of compound 3), the solubility worked out at 5170 µg/mL and the water solubility came to 5700 µg/mL.
